Results published in patent US9266890B2, “Pyrimido-diazepinone kinase scaffold compounds and methods of treating disorders” (Dana-Farber Cancer Institute, Inc., priority 2009, dated 2016).

Biological target: Plk1 (Homo sapiens (Human), UniProt P53350)
Assay: Plk1 Cellular Assay - Mitotic Arrest Assay
Assay type: cell-based
Conditions: Hela cells, immunofluorescence microscopy, 24 hours post-treatment
Description: FIG. 2. […] Using immunofluorescence microscopy the cells were located by their DNA stain (Hoechst) and were then scored for phospho H3 positivity. Cells that are arrested in mitosis are phospho H3 positive.
Hela cells were plated at roughly 80% cell density on poly-lysine coated glass coverslips. After 24 hours the medium* was removed and fresh medium supplemented with test compounds was added. Twenty-four hours post-treatment the medium was removed, the coverslips were washed once with phosphate-buffered saline (PBS), pH 7.4 and the cells fixed for 10 minutes at room temperature using the following fixative solution: 100 mM K-Pipes, pH 6.8, 10 mM EGTA, 1 mM MgCl2, 0.2% Triton X-100, 3% formaldehyde. The coverslips were washed 3× with Tris-buffered saline solution (50 mM Tris-HCl pH 7.4, 150 mM NaCl) containing 0.1% Triton X-100 (TBST). The samples were blocked using 2% bovine serum albumin (BSA) in TBST. The samples were then incubated with a phosphorylation-specific antibody against histone 3 (phospho H3) serine-10 (Upstate, 1:500-1:1000) in blocking solution. Cells can also optionally be stained for tubulin as well using appropriate antibodies. After a 2-hr. incubation at room temperature (or 4° C. overnight), the samples were washed 3× with TBST. The samples were then incubated with an appropriate secondary antibody in blocking solution for 1-2 hrs at room temperature (or 4° C. overnight). […] The samples were washed 3× with TBST and mounted onto glass slides using Prolong Gold Antifade Reagent (Invitrogen). See FIGS. 2 and 3. *Hela/U2OS medium—Dulbecco's Modified Eagle's Medium (DMEM, Sigma), 10% fetal bovine serum, 1% penicillin/streptomycin

Chain of Plk1 (P53350 whole entry): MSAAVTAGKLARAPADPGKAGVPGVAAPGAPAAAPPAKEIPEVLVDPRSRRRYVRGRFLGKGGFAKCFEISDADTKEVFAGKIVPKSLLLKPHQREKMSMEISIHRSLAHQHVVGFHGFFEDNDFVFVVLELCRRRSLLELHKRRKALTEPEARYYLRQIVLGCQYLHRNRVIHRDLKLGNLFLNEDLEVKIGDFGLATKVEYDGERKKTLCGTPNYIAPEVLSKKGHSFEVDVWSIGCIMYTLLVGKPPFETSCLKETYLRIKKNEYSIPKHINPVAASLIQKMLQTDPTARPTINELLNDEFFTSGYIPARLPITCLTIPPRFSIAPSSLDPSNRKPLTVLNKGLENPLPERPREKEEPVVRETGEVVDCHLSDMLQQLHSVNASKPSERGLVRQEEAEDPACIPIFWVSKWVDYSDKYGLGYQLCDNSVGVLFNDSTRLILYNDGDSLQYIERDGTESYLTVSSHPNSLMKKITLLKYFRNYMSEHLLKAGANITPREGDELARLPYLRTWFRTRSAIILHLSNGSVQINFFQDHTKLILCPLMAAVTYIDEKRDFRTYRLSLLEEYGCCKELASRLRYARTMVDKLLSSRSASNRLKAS

Which “mitotic arrest (phospho H3 positivity)” value does the source give for `COc1cc(C(=O)NC2CCN(C)CC2)ccc1Nc1ncc2c(n1)N(C1CCCC1)C(C)CC(=O)N2C` (stereo not drawn) [Compound I-4] here?
Its value is “induce a strong mitotic arrest”.

How did the “mitotic arrest (phospho H3 positivity)” value turn out when `COc1cc(C(=O)NC2CCN(C)CC2)ccc1Nc1ncc2c(n1)N(C1CCCC1)CC(C)C(=O)N2C` (stereo not drawn) [Compound I-5] was run?
Its value is “induce a strong mitotic arrest”.

Which “mitotic arrest (phospho H3 positivity)” value does the source give for `COc1cc(N2CCC(O)CC2)ccc1Nc1ncc2c(n1)N(C1CCCC1)CCC(=O)N2C` [Compound I-6] here?
Its value is “do not”.

For `COc1cc(N(C)CCO)ccc1Nc1ncc2c(n1)N(C1CCCC1)CCC(=O)N2C` [Compound I-7], which “mitotic arrest (phospho H3 positivity)” value is on record?
The value was “do not”.

How did the “mitotic arrest (phospho H3 positivity)” value turn out when `COc1cc(N(C)CCCO)ccc1Nc1ncc2c(n1)N(C1CCCC1)CCC(=O)N2C` [Compound I-8] was run?
The value was “do not”.

Biological target: Mps1 (TTK) (Homo sapiens (Human), UniProt P33981)
Sequence (P33981 whole entry): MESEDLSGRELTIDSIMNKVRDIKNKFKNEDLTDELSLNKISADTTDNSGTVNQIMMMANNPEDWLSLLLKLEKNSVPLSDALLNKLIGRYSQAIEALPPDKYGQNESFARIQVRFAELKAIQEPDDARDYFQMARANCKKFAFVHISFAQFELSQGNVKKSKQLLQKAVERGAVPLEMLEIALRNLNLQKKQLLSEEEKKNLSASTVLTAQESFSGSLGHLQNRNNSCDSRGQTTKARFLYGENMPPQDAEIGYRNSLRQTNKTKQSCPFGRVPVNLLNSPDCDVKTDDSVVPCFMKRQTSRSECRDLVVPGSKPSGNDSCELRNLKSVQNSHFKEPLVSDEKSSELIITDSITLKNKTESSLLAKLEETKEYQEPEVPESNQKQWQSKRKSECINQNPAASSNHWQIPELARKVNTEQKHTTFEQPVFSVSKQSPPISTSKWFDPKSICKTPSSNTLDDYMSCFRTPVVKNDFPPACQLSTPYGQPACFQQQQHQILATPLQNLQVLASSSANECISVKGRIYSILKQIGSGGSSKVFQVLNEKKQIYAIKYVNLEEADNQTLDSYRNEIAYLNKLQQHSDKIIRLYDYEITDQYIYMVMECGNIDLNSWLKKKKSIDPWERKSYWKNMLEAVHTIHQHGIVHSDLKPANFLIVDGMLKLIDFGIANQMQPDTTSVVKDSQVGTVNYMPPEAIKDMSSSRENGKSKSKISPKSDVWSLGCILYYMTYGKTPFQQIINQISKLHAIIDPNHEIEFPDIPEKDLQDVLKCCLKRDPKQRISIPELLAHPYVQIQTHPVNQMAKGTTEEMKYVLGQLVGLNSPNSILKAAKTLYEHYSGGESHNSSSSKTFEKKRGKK
Assay: Mps1 (TTK) Cellular Assay - Mitotic Escape Assay
Assay type: cell-based
Conditions: Hela cells arrested with thymidine then nocodazole (0.33 μM); compound 0.25-10 uM for 2 hrs
Description: FIG. 1. […] Hela cells were arrested in mitosis using the following protocol. Cells were treated with thymidine (2.5 mM) for 24 hours. Cells were released into medium containing nocodazole (0.33 μM). After 16 hrs. cells were treated with I-10 a range of concentrations (0.25, 0.5, 1, 2, 5 and 10 uM) shown above for 2 hrs. Cells were harvested and the levels of cyclin B (a marker for mitosis) were determined by immunoblot. High cyclin B levels indicated mitotic cells, while low cyclin B levels indicate cells have exited nocodazole-induced mitotic arrest.
Hela (or U2OS cells) were plated at roughly 30-35% cell density. After 24 hours the medium* was removed and fresh medium supplemented with 2.5 mM thymidine was added to arrest cells at the G1/S transition. After 24 hours in thymidine block the medium was removed, the cells were washed 3× with PBS and replaced with medium supplemented with 330 nM nocodazole (Noc). The cells were incubated with nocodazole for 16-18 hours to produce a mitotic arrest. […] After 2 hours, the cells were harvested, lysed in RIPA buffer, and the levels of cyclin B or phosphorylated Histone 3 (Ser10) determined by western blotting. Alternatively, cells were treated on coverslips, fixed, and phosphorylated Histone 3 levels determined by immunofluorescence. […]

Which “escape from mitosis (cyclin B levels by immunoblot)” value does the source give for `CCOc1cc(N2CCC(O)CC2)ccc1Nc1ncc2c(n1)N(C1CCCC1)CCC(=O)N2C` [Compound I-10] here?
The value was “induces escape from mitosis”.
